Laboratory results: patent US20110008302A1, “Compositions and methods for immortalizing cells and screening for anti-cancer agents” (priority 2007, published 2011)

Key:
Ndy1 = test: siRNA knock down in MEFs (Western blot, real time PCR of p16Ink4a, p19Arf, Ezh2, miR-101); format: cell-based, mouse; conditions: passage 3 MEFs, knock down of the short form of Ndy1
Description: At a time point four days after transfection cells were analyzed by Western blotting and total mRNA was collected and analyzed by real-time PCR with primers specific for p16^Ink4a and p19^Arf and primers specific for the long and short forms of Ndy1. (n=3)*p<0.05
MEFs overexpressing Ndy1 or Ndy2 and MEFs in which Ndy1 was knocked down with siRNA (1433-[…]-1454, SEQ ID NO: 1), were monitored for senescence by light microscopy and β-galactosidase staining and by cell counting at each passage. Transfection of siRNA was carried out using Lipofectamine 2000 (Invitrogen; Carlsbad, Calif.). Knockdown of Ndy1 was confirmed by Western blotting and real time RTPCR.
For siRNA. MEFs transfected with Ndy1 (1433-[…]-1454; SEQ ID NO: 51) or control siRNA (Dharmacon) were plated at 10^5 cells per 6 cm dish and 3-4 days later were harvested and analyzed (Pfau, R., et al. (2008) Proc Natl Acad Sci USA 105, 1907-12, incorporated herein by reference in its entirety). MEFs were transfected with the help of Lipofectamine 2000 (Invitrogen). To specifically knock down the short form of Ndy1 the following siRNA were used: 5′-[…]-′3 (SEQ ID NO: 52) which specifically targets the exon1 of the v2 isoform of Ndy1 (NM_013910). siRNAs for Ezh2 (a mix of two siRNAs form Applied Biosystems, #AM16708 siID #157427 and #157426) and Bmi-1 (Santa Cruz Biotechnologies, # sc-29815) were used in a final concentration of 80 nM.

MEFs [1] = test: Oxidant/antioxidant treatment of MEFs, Ezh2 Western blot; format: cell-based, mouse; conditions: NAC 5 mM, Trolox 1 mM, H2O2 0.5 or 1 mM
Description: MEFs were treated with NAC (5 mM), Trolox (1 mM) or H2O2 (0.5 or 1 mM). Nuclear extracts were probed with antibodies specific for Ezh2 and for CREB, levels of which served as loading control.
(§1) TROLOX ((±)-6-Hydroxy-2,5,7,8-tetramethylchromane-2-carboxylic acid, (Sigma, catalog number 238813), NAC (N-Acetyl-L-cysteine, Sigma, catalog number A9165), H2O2 (Sigma, catalog number H-1009) and PD173074 (N-[2-[[4-(Diethylamino)butyl]amino]-6-(3,5-dimethoxyphenyl)pyrido[2,3-d]pyrimidin-7-yl]-N′-(1,1-dimethylethyl) urea, FGFR-1/3 inhibitor, TOCRIS Bioscience, catalog number 3044) were added directly in the culture at the indicated concentrations.

WIDR cells = test: PD173074 treatment of WIDR cells (Western blot, real time RT-PCR); format: cell-based, human
Description: (§2) WIDR cell were treated with 0.5 μM PD173074 or carrier for 24 hours. (upper) Nuclear and cytoplasmic extracts were probed with antibodies specific for each of Ndy1, Ezh2 and phosphoERK antibodies. CREB and ERK levels served as loading controls. (lower) miR-101 levels were measured with real time RT-PCR; U6 small nuclear RNA levels were used as internal control. Data are expressed as mean±SD.
WIDR cells were transduced with an HA.Ndy1 overexpression construct or the empty vector (EV), and were subsequently treated with 0.5 μM PD173074 or carrier for 24 hours. (upper) Nuclear extracts were probed with antibodies specific for each of with HA-tag (exogenous Ndy1), Ndy1 (both endogenous and exogenous Ndy1) and Ezh2. CREB levels served as loading controls. (lower) miR-101 levels were measured with real time RT-PCR; U6 small nuclear RNA levels were used as internal controls. Data are expressed as mean±SD.
as §1
(§3) As a next step, FGF signaling was examined to determine importance for Ezh2 upregulation by Ndy1 in these cells. To address this issue, TCCSUP or WIDR cells, two of the above five cell lines, were treated with PD173074, an inhibitor of both FGFR1 and both FGFR3.
(§4) To examine if ectopic expression of Ndy1 reverses the effects of PD173074, namely miR-101 upregulation and Ezh2 downregulation, TCCSUP or WIDR cells were transduced with a pBabe-based retroviral Ndy1 overexpression construct. Cells transduced with the empty pBabe vector were used as control. The engineered cells were subsequently treated with PD173074. Nuclear lysates from these cells were probed with antibodies specific for each of HA-tag (exogenous Ndy1), Ndy1 (both exogenous and endogenous), Ezh2, and CREB. RNA isolated from the same cells was used to measure miR-101 levels with real time RT-PCR.

TCCSUP cells = test: PD173074 treatment of TCCSUP cells (Western blot, real time RT-PCR); format: cell-based, human
Description: as §2, with “TCCSUP cells” for “WIDR cell”, “phosphoERK.” for “phosphoERK antibodies.”
TCCSUP cells were transduced with an HA.Ndy1 overexpression construct or with the empty vector (EV), and were subsequently treated with 0.5 μM PD173074 or carrier for 24 hours. (upper) Nuclear extracts were probed with antibodies specific for each of HA-tag (exogenous Ndy1), Ndy1 (both endogenous and exogenous Ndy1) and Ezh2. CREB levels served as loading control. (lower) miR-101 levels were measured with real time RT-PCR; U6 small nuclear RNA levels were used as internal control. Data are expressed as mean±SD.
as §1, §3, §4

MEFs [2] = test: Stimulation of serum-starved MEFs with growth factors or serum (Ezh2, Ndy1, miR-101 levels); format: cell-based, mouse; conditions: serum-starved MEFs, 24 hours after stimulation; for Ezh2 expression: 20 ng/ml (serum 10%)
Description: MEFs were transfected with control siRNA and stimulated with serum (10%) for 1, 4, 12 and 18 hours. (upper) Nuclear extracts were probed with antibody specific for Ezh2 and for CREB, levels of which served as loading control. (lower) Ndy1 and Ezh2 mRNA levels were measured with real time RT-PCR; GAPDH mRNA levels were used as internal control. Data are expressed as mean±SD.
Serum starved MEFs were stimulated with each of FGF-2 (20 ng/ml), IGF-1 (20 ng/ml), PDGF (20 ng/ml), serum (10%), VEGF (20 ng/ml), EGF (20 ng/ml) or TNFα (50 ng/ml). Nuclear extracts were probed with antibody specific for Ezh2 and for CREB, levels of which served as loading control.
Data are expressed as mean±SD.
MEFs transfected with control siRNA were stimulated with FGF-2 for 1, 4, 12 or 18 hours. (upper) Nuclear extracts were probed with antibody specific for Ezh2. CREB levels served as loading control. (middle) Ndy1 and Ezh2 mRNA were measured with real time RT-PCR; GAPDH mRNA levels were used as internal control. Data are expressed as mean±SD. (lower) miR-101 levels were measured with real time RT-PCR; U6 small nuclear RNA levels were used as internal control. Data are expressed as mean±SD.
For stimulation with FGF-2 (Cell signalling, catalog number 8910), IGF-1 (R&D Systems, catalog number 791-MG), PDGF (Cell signalling, catalog number 9909), VEGF (R&D systems, catalog number 493-MV), EGF (R&D systems, catalog number 236-EG), TNFα (Cell Signalling, catalog number 2169), cells were serum starved for 16 hours and growth factors were added at a final concentration of 20 ng/ml each, for 24 hours.
To identify a pathway regulating Ezh2 expression via the Ndy1/miR-101 axis, serum-starved MEFs were stimulated with FGF-2, IGF-1, PDGF, EGF, VEGF, TNFα or serum and were examined for expression of Ezh2, Ndy1 and miR-101 before and 24 hours after stimulation. […] This was confirmed with analyses in which FGF-2 was used to stimulate serum-starved MEFs transfected with a control siRNA or siRNA for Ndy1 (FIG. 36).

[3] = WIDR cells overexpressing HA.Ndy1, 0.5 μM, 24 hours
[4] = TCCSUP cells overexpressing HA.Ndy1, 0.5 μM, 24 hours

## 5′-CCGAGGACGACGACUAUGAUU-′3 [Ndy1 short form siRNA]
Ndy1
  p16Ink4a: did not upregulate significantly
  p19Arf: did not upregulate significantly

## Cc1c(C)c2c(c(C)c1O)CCC(C)(C(=O)O)O2 (racemic) [Trolox, (±)-6-Hydroxy-2,5,7,8-tetramethylchromane-2-carboxylic acid]
MEFs [1]
  Ezh2 protein levels: no effect

## OO [H2O2]
MEFs [1]
  Ezh2 protein levels: no effect

## CC(=O)N[C@@H](CS)C(=O)O [NAC, N-Acetyl-L-cysteine]
MEFs [1]
  Ezh2 protein levels: no effect

## CCN(CC)CCCCNc1ncc2cc(-c3cc(OC)cc(OC)c3)c(NC(=O)NC(C)(C)C)nc2n1 [PD173074, N-[2-[[4-(Diethylamino)butyl]amino]-6-(3,5-dimethoxyphenyl)pyrido[2,3-d]pyrimidin-7-yl]-N′-(1,1-dimethylethyl) urea]
WIDR cells; WIDR cells
  FGF signaling (level of ERK1/2 phosphorylation): blocked
WIDR cells; [3]
  effect on Ezh2: abrogated
  effect on miR-101: abrogated
WIDR cells; WIDR cells, 0.5 μM, 24 hours
  Ezh2 protein level: downregulates
  Ndy1 protein level: downregulates
  miR-101 levels: upregulates
TCCSUP cells; TCCSUP cells
  FGF signaling (level of ERK1/2 phosphorylation): blocked
TCCSUP cells; [4]
  effect on Ezh2: abrogated
  effect on miR-101: abrogated
TCCSUP cells; TCCSUP cells, 0.5 μM, 24 hours
  Ezh2 protein level: downregulates
  Ndy1 protein level: downregulates
  miR-101 levels: upregulates

## IGF-1: growth factor, R&D Systems
MEFs [2]
  level at which Ezh2 expression is induced: at both the RNA and protein levels
  Ezh2 expression: significantly upregulated

## PDGF
MEFs [2]
  level at which Ezh2 expression is induced: at both the RNA and protein levels
  Ezh2 expression: significantly upregulated

## VEGF
MEFs [2]
  expression of Ndy1: only moderate
  level at which Ezh2 expression is induced: primarily at the protein level
  miR-101: downregulating
  Ezh2 expression: significantly upregulated
